This note sets out measurements from patent US11738014B2, “Niraparib particles and uses thereof” (CRITITECH, INC., priority 2021, dated 2023).

One data set in a line: physchem. As to conditions: for solubility at 24 h: 20 °C, aqueous with cosolvent or surfactant or cyclodextrin, thermodynamic from solid. On the procedure:
The solubility was determined by using a shake-flask method. The drug was added in excess to each solution prepared in duplicate. The vials were placed on a mechanical shaker for 24 hours at 20-25° C. After shaking, solution was removed and filtered through a 0.45 μm PTFE syringe filter and analyzed by UV/Visible spectrophotometry.

Data set [1] is described as follows: Particle Size Distribution (PSD) by Laser Diffraction (Malvern Mastersizer 3000). The class given is physicochemical. As to conditions: dispersed in ethyl acetate. On the procedure:
Particle Size Distribution (PSD) by Laser Diffraction
Particle size analyses were conducted on a Malvern Mastersizer™ 3000 using the Hydro MV™ dispersion unit. A non-validated general PSD method/dispersant method was used to analyze the niraparib samples. The sample preparation procedure performed was as follows: Weigh 10 to 20 mg of niraparib into a 30-mL vial, add 20 mL of ethyl acetate. Disperse the sample by vortexing then sonicating the suspension in an ultrasonic bath for 1 minute. Then transfer the sample suspension to the Malvern Hydro MV™ dispersion unit to obtain obscuration between 5 and 15%.
PSD results from a Dv10 of 0.601 μ to a Dv90 of 12.9μ were obtained. […] Particle size distributions can be viewed in Table 1.

Data set [2] is described as follows: Specific Surface Area (SSA) determination by BET Sorptometry. The data set is classed as physicochemical. The procedure: As used herein, the “specific surface area” is the total surface area of the niraparib particle per unit of niraparib mass as measured by the Brunauer-Emmett-Teller (“BET”) isotherm (i.e.: the BET SSA). As will be understood by those of skill in the art, the SSA is determined on a per gram basis and takes into account both agglomerated and non-agglomerated niraparib particles in the composition. The BET specific surface area test procedure is a compendial method included in both the United States Pharmacopeia and the European Pharmacopeia. The niraparib particles have a specific surface area (SSA) of at least 5 m^2/g. In various further embodiments, the niraparib particles have a SSA of at least 6 m^2/g, 7 m^2/g, 8 m^2/g, 9 m^2/g 10 m^2/g, 11 m^2/g, 12 m^2/g, 13 m^2/g, 14 m^2/g, 15 m^2/g, 16 m^2/g, 17 m^2/g, 18 m^2/g, 19 m^2/g, 20 m^2/g, 21 m^2/g, 22 m^2/g, 23 m^2/g, or 24 m^2/g.
Specific Surface Area (SSA) determination by BET Sorptometry
Surface area analyses were conducted on a Quantachrome NOVAtouch™ LX2 BET Sorptometer. Surface area results can be found in Table 1.

The nature of data set [3]: Bulk density analysis by modified USP <616> Bulk Density of Powders Method I (bulk and tapped density). The class given is physicochemical. The source says: As used herein, the bulk density (not tapped) of a particle is the ratio of the mass to the volume (including the interparticulate void volume) of an untapped powder sample.
As used herein, the tapped density of a particle is obtained by mechanically tapping a graduated cylinder containing the sample until little further volume change is observed.
Bulk density analysis by modified USP <616> Bulk Density of Powders Method I

Converted amounts (≈) assume the structure as drawn.

Usually solubility stands for the concentration that dissolves in the medium under given conditions. Consider `NC(=O)c1cccc2cn(-c3ccc([C@@H]4CCCNC4)cc3)nc12` [Niraparib, (S)-2-(4-(piperidin-3-yl)phenyl)-2H-indazole-7-carboxamide], for which the solubility at 24 h in the data set “physchem” (10% ethanol in water) came out at 56.2 µg/mL (≈ 175 µM); in “physchem” (10% methanol in water), 76.4 µg/mL (≈ 238 µM); in “physchem” (25% ethanol in water) it was 332 µg/mL (≈ 1040 µM); in the data set “physchem” (25% methanol in water) it was 204 µg/mL (≈ 637 µM). Moreover, the “solubility versus organic solvent concentration” value in the data set “physchem” (methanol or ethanol, 10% and 25%) is “concentration dependent solubility”. Further, the Dv-10 in data set [1] turned out to be 33.2 μ. The Dv-50 in data set [1] turned out to be 103 μ. Besides, in data set [1], the Dv-90 came out at 267 μ. Moreover, in data set [2] (BET sorptometer), the “Surface Area” value was 0.70 m^2/gm. Also, the “specific surface area measurement” value in data set [2] (material used in dissolution testing) is on record as 0.70 m^2/g. Besides, the “Bulk Density” value in data set [3] (not tapped) was 0.617 gm/cm^3. Also, in data set [3] (tapped), the “Tapped Density” value is on record as 0.741 gm/cm^3.
